Laboratory results as given in US8263598B2, “Substituted sulfonamide compounds” (Gruenenthal GmbH, priority 2008, dated 2012).

How the values were obtained:
[1] = target: T1, human B1R receptor (hB1R) (Homo sapiens, UniProt P46663); test: FLIPR Ca2+ assay on human bradykinin 1 receptor (CHO K1 hB1R cells); type: cell-based; conditions: test substance 10 μM; CHO K1 cells with human B1R gene; agonist Lys-Des-Arg9-bradykinin 0.5 nM; compared to maximum achievable inhibition
T1 construct: host or cells: CHO K1 cells
T1 sequence (P46663 1-353): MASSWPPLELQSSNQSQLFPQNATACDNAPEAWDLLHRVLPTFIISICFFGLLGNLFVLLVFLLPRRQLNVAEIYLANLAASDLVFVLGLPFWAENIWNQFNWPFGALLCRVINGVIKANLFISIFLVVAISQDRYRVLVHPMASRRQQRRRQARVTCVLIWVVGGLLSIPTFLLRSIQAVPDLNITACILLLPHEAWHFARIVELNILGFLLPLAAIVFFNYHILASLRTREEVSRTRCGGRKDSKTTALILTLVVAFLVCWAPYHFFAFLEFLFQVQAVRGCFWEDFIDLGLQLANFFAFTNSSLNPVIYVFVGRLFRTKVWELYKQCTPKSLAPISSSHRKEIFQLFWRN
Procedure, shortened: (§1)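 Values are percent inhibition of agonist-evoked Ca²⁺ influx, measured by Fluo-4 fluorescence peak in FLIPR relative to maximum achievable inhibition. Compound at 10 μM was preincubated 10 min on B1R-transfected CHO K1 cells before challenge with 0.5 nM Lys-Des-Arg9-bradykinin (human) or 100 nM Des-Arg9-bradykinin (rat).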

[2] = target: T2, B1R receptor of rats (rB1R) (Rattus norvegicus, UniProt P97583); test: FLIPR Ca2+ assay on rat bradykinin 1 receptor (CHO K1 rB1R cells); type: cell-based; conditions: test substance 10 μM; CHO K1 cells with B1R gene of rats; agonist Des-Arg9-bradykinin 100 nM; compared to maximum achievable inhibition
T2 construct: host or cells: CHO K1 cells
T2 sequence (P97583 1-337): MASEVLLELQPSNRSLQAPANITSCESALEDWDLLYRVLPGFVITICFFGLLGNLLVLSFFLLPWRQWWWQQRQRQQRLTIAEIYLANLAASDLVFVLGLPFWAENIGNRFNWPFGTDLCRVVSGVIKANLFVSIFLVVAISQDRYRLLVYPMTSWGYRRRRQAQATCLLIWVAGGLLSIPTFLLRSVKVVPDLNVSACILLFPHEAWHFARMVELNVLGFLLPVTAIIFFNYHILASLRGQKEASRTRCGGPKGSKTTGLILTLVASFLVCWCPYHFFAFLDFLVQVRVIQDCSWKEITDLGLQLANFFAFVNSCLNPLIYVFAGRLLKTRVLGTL
Procedure, shortened: as §1

Row | SMILES | inhibition at 10 µM [1] | inhibition at 10 µM [2]
1 | COc1cc(C)c(S(=O)(=O)N(C)CCOCC(=O)N2CCn3cccc3C2c2cccs2)c(C)c1C (stereo not shown) [Example 88, 4-methoxy-N,2,3,6-tetramethyl-N-(2-(2-oxo-2-(1-(thiophen-2-yl)-3,4-dihydropyrrolo[1,2-a]pyrazin-2(1H)-yl)ethoxy)ethyl)benzenesulfonamide] | 101% | 98%
2 | COc1cccc(C2c3cccn3CCN2C(=O)COCCN(C)S(=O)(=O)c2c(C)cc(OC)c(C)c2C)c1 (stereo not shown) [Example 89, 4-methoxy-N-(2-(2-(1-(3-methoxyphenyl)-3,4-dihydropyrrolo[1,2-a]pyrazin-2(1H)-yl)-2-oxoethoxy)ethyl)-N,2,3,6-tetramethylbenzenesulfonamide] | 100% | 98%
3 | COc1cc(C)c(S(=O)(=O)N(C)CCOCC(=O)N2CCn3cccc3C2c2ccc(C(C)(C)C)cc2)c(C)c1C (stereo not shown) [Example 90, N-(2-(2-(1-(4-tert-butylphenyl)-3,4-dihydropyrrolo[1,2-a]pyrazin-2(1H)-yl)-2-oxoethoxy)ethyl)-4-methoxy-N,2,3,6-tetramethylbenzenesulfonamide] | 47% | 66%
4 | COc1cc(C)c(S(=O)(=O)N(CCOCC(=O)N2CCn3c(CN(C)C)ccc3C2c2ccccc2)CC(C)C)c(C)c1C (stereo not shown) [Example 91, N-(2-(2-(6-((dimethylamino)methyl)-1-phenyl-3,4-dihydropyrrolo[1,2-a]pyrazin-2(1H)-yl)-2-oxoethoxy)ethyl)-N-isobutyl-4-methoxy-2,3,6-trimethylbenzene-sulfonamide] | 103% | 103%
5 | COc1cc(C)c(S(=O)(=O)N(CCOCC(=O)N2CCn3c(CN4CCCC4)ccc3C2c2ccccc2)CC(C)C)c(C)c1C (stereo not shown) [Example 92, N-isobutyl-4-methoxy-2,3,6-trimethyl-N-(2-(2-oxo-2-(1-phenyl-6-(pyrrolidin-1-ylmethyl)-3,4-dihydropyrrolo[1,2-a]pyrazin-2(1H)-yl)ethoxy)ethyl)benzene-sulfonamide] | 102% | 102%
6 | COc1cc(C)c(S(=O)(=O)N(CCOCC(=O)N2CCn3c(CN4CCCCC4)ccc3C2c2ccccc2)CC(C)C)c(C)c1C (stereo not shown) [Example 93, N-isobutyl-4-methoxy-2,3,6-trimethyl-N-(2-(2-oxo-2-(1-phenyl-6-(piperidin-1-ylmethyl)-3,4-dihydropyrrolo[1,2-a]pyrazin-2(1H)-yl)ethoxy)ethyl)benzene-sulfonamide] | 103% | 102%
7 | COc1cc(C)c(S(=O)(=O)N(CCOCC(=O)N2CCn3c(CN4CCOCC4)ccc3C2c2ccccc2)CC(C)C)c(C)c1C (stereo not shown) [Example 94, N-isobutyl-4-methoxy-2,3,6-trimethyl-N-(2-(2-(6-(morpholinomethyl)-1-phenyl-3,4-dihydropyrrolo[1,2-a]pyrazin-2(1H)-yl)-2-oxoethoxy)ethyl)benzene-sulfonamide] | 104% | 102%
8 | COc1cc(C)c(S(=O)(=O)N(CCOCC(=O)N2CCn3c(CN(C)C)ccc3C2Cc2ccccc2)CC(C)C)c(C)c1C (stereo not shown) [Example 95, N-(2-(2-(1-benzyl-6-((dimethylamino)methyl)-3,4-dihydropyrrolo[1,2-a]pyrazin-2(1H)-yl)-2-oxoethoxy)ethyl)-N-isobutyl-4-methoxy-2,3,6-trimethylbenzene-sulfonamide] | 101% | 101%
9 | COc1cc(C)c(S(=O)(=O)N(CCOCC(=O)N2CCn3c(CN(C)C)ccc3C2CCc2ccccc2)CC(C)C)c(C)c1C (stereo not shown) [Example 96, N-(2-(2-(6-((dimethylamino)methyl)-1-phenethyl-3,4-dihydropyrrolo[1,2-a]pyrazin-2(1H)-yl)-2-oxoethoxy)ethyl)-N-isobutyl-4-methoxy-2,3,6-trimethyl-benzenesulfonamide] | 102% | 101%
10 | CCCCC1c2ccc(CN(C)C)n2CCN1C(=O)COCCN(CC(C)C)S(=O)(=O)c1c(C)cc(OC)c(C)c1C (stereo not shown) [Example 97, N-(2-(2-(1-butyl-6-((dimethylamino)methyl)-3,4-dihydropyrrolo[1,2-a]pyrazin-2(1H)-yl)-2-oxoethoxy)ethyl)-N-isobutyl-4-methoxy-2,3,6-trimethylbenzene-sulfonamide] | 89% | 102%
11 | COc1cc(C)c(S(=O)(=O)N(CCOCC(=O)N2CCn3c(CN(C)C)ccc3C2c2cccs2)CC(C)C)c(C)c1C (stereo not shown) [Example 98, N-(2-(2-(6-((dimethylamino)methyl)-1-(thiophen-2-yl)-3,4-dihydropyrrolo[1,2-a]pyrazin-2(1H)-yl)-2-oxoethoxy)ethyl)-N-isobutyl-4-methoxy-2,3,6-trimethyl-benzenesulfonamide] | 101% | 102%

Second part, the molecule after the results:

Row | inhibition at 10 µM [1] | inhibition at 10 µM [2] | SMILES
12 | 102% | 101% | CCC1c2ccc(CN(C)C)n2CCN1C(=O)COCCN(CC(C)C)S(=O)(=O)c1c(C)cc(OC)c(C)c1C (stereo not shown) [Example 99, N-(2-(2-(6-((dimethylamino)methyl)-1-ethyl-3,4-dihydropyrrolo[1,2-a]pyrazin-2(1H)-yl)-2-oxoethoxy)ethyl)-N-isobutyl-4-methoxy-2,3,6-trimethylbenzene-sulfonamide]
13 | 98% | 103% | CCC1c2cccn2CCN1C(=O)COCCN(CC(C)C)S(=O)(=O)c1c(C)cc(OC)c(C)c1C (stereo not shown) [Example 100, N-(2-(2-(1-ethyl-3,4-dihydropyrrolo[1,2-a]pyrazin-2(1H)-yl)-2-oxoethoxy)ethyl)-N-isobutyl-4-methoxy-2,3,6-trimethylbenzenesulfonamide]
14 | 91% | 102% | CCCC1c2cccn2CCN1C(=O)COCCN(CC(C)C)S(=O)(=O)c1c(C)cc(OC)c(C)c1C (stereo not shown) [Example 101, N-isobutyl-4-methoxy-2,3,6-trimethyl-N-(2-(2-oxo-2-(1-propyl-3,4-dihydropyrrolo[1,2-a]pyrazin-2(1H)-yl)ethoxy)ethyl)benzenesulfonamide]
15 | 96% | 102% | COc1cc(C)c(S(=O)(=O)N(CCOCC(=O)N2CCn3cccc3C2C(C)C)CC(C)C)c(C)c1C (stereo not shown) [Example 102, N-isobutyl-N-(2-(2-(1-isopropyl-3,4-dihydropyrrolo[1,2-a]pyrazin-2(1H)-yl)-2-oxoethoxy)ethyl)-4-methoxy-2,3,6-trimethylbenzenesulfonamide]
16 | 101% | 102% | CCC1c2ccc(C)n2CCN1C(=O)COCCN(CC(C)C)S(=O)(=O)c1c(C)cc(OC)c(C)c1C (stereo not shown) [Example 103, N-(2-(2-(1-ethyl-6-methyl-3,4-dihydropyrrolo[1,2-a]pyrazin-2(1H)-yl)-2-oxoethoxy)ethyl)-N-isobutyl-4-methoxy-2,3,6-trimethylbenzenesulfonamide]
17 | 93% | 102% | COc1cc(C)c(S(=O)(=O)N(CCOCC(=O)N2CCn3c(C)ccc3C2C(C)C)CC(C)C)c(C)c1C (stereo not shown) [Example 104, N-isobutyl-N-(2-(2-(1-isopropyl-6-methyl-3,4-dihydropyrrolo[1,2-a]pyrazin-2(1H)-yl)-2-oxoethoxy)ethyl)-4-methoxy-2,3,6-trimethylbenzenesulfonamide]
18 | 100% | 100% | COc1c(C)cc(S(=O)(=O)N(C)CCOCC(=O)N2CCn3c(CN(C)C)ccc3C2c2ccccc2)c(C)c1C (stereo not shown) [Example 105, N-(2-(2-(6-((dimethylamino)methyl)-1-phenyl-3,4-dihydropyrrolo[1,2-a]pyrazin-2(1H)-yl)-2-oxoethoxy)ethyl)-4-methoxy-N,2,3,5-tetramethylbenzene-sulfonamide]
19 | 99% | 101% | COc1c(C)cc(S(=O)(=O)N(C)CCOCC(=O)N2CCn3c(CN4CCCC4)ccc3C2c2ccccc2)c(C)c1C (stereo not shown) [Example 106, 4-methoxy-N,2,3,5-tetramethyl-N-(2-(2-oxo-2-(1-phenyl-6-(pyrrolidin-1-ylmethyl)-3,4-dihydropyrrolo[1,2-a]pyrazin-2(1H)-yl)ethoxy)ethyl)benzene-sulfonamide]
20 | 98% | 102% | COc1c(C)cc(S(=O)(=O)N(C)CCOCC(=O)N2CCn3c(CN4CCCCC4)ccc3C2c2ccccc2)c(C)c1C (stereo not shown) [Example 107, 4-methoxy-N,2,3,5-tetramethyl-N-(2-(2-oxo-2-(1-phenyl-6-(piperidin-1-ylmethyl)-3,4-dihydropyrrolo[1,2-a]pyrazin-2(1H)-yl)ethoxy)ethyl)benzene-sulfonamide]
